We go through four compounds from US12195730B2, “High-throughput screening methods to identify small molecule targets” (A-Alpha Bio, Inc., priority 2020, dated 2025).

For test [1], the target named is interaction between FKBP12 and the FRB domain of TOR (Homo sapiens, UniProt P42345+P62942). Briefly: AlphaSeq yeast mating assay, effect of small molecule agonists on FKBP12/FRB interaction. The note with it: FIG. 6B; increasing compound concentration correlates with increasing mating efficiency.
The target of test [2] is T1, interaction of IKZF1 with wild-type CRBN (Homo sapiens, UniProt Q96SW2).
T1 construct: expressed in transfected cells; host or cells: recombinant haploid yeast cells (surface display)
Kind of test: AlphaSeq assay, effect of thalidomide and analogs on wild-type CRBN/IKZF1 interaction. It is filed as cell-based. The note with it: FIG. 7B. The source says: (§1) FIG. 7A is a schematic illustrating thalidomide, or its analogs, mediating the interaction between CRBN and IKZF1.

The subject of test [3] is interaction of IKZF1 with mutant CRBN. Kind of test: AlphaSeq assay, effect of thalidomide and analogs on mutant CRBN/IKZF1 interaction. Format: cell-based. The note with it: FIG. 7B.
Text: as §1

interaction between FKBP12 and the FRB domain of TOR, sequence (P62942 whole entry, the tested form may be a part): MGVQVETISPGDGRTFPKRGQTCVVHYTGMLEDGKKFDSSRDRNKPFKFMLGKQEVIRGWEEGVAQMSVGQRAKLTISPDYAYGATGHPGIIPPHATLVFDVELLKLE
interaction between FKBP12 and the FRB domain of TOR, sequence (P42345 2012-2144 limits assumed): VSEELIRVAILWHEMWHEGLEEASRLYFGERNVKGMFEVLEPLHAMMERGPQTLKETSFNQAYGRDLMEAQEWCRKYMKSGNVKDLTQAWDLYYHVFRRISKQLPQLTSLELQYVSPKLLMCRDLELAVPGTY
T1 sequence (Q96SW2 whole entry): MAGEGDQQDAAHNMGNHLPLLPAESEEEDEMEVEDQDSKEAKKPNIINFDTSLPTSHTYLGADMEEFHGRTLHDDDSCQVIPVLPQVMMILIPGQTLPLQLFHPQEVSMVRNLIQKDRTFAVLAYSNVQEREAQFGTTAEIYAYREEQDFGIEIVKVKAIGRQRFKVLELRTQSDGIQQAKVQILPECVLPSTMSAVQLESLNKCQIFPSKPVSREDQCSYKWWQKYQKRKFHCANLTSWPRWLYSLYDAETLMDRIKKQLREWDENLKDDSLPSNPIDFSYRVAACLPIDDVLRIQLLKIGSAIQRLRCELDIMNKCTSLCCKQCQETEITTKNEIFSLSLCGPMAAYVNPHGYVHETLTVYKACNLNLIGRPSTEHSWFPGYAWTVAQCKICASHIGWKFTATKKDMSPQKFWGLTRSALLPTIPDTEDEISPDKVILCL
T1 sequence (Q13422 whole entry partner): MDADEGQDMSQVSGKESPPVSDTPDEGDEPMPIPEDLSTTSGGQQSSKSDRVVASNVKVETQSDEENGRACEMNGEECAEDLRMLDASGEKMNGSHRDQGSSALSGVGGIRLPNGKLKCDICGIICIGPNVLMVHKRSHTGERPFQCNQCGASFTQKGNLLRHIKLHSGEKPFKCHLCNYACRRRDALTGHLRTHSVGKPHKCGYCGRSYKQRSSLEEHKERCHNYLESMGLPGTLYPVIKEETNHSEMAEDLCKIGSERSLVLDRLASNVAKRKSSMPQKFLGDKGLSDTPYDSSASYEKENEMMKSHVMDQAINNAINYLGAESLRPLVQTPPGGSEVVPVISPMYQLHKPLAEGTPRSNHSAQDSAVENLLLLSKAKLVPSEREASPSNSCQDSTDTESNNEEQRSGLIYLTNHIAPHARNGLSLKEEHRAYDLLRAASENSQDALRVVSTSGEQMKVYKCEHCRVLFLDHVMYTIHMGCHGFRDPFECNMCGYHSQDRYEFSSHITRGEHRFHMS

For `CO[C@H]1C[C@@H]2CC[C@@H](C)[C@@](O)(O2)C(=O)C(=O)N2CCCC[C@H]2C(=O)O[C@H]([C@H](C)C[C@@H]2CC[C@@H](OCCO)[C@H](OC)C2)CC(=O)[C@H](C)/C=C(\C)[C@@H](O)[C@@H](OC)C(=O)[C@H](C)C[C@H](C)/C=C/C=C/C=C/1C` [everolimus], the “effect on the interaction between FKBP12 and the FRB domain (mating efficiency)” value in test [1] was “agonistic effect”. For the compound `Nc1cccc2c1C(=O)N(C1CCC(=O)NC1=O)C2=O` (stereo not drawn) [pomalidomide], the “effect on the interaction of IKZF1 with wild-type CRBN” value in test [2] is “agonistic effect”. For the same compound, the “effect on the interaction of IKZF1 with mutant CRBN” value in test [3] is recorded as “not mutant CRBN”.

Turning to `CO[C@H]1C[C@@H]2CC[C@@H](C)[C@@](O)(O2)C(=O)C(=O)N2CCCC[C@H]2C(=O)O[C@H]([C@H](C)C[C@@H]2CC[C@@H](OP(C)(C)=O)[C@H](OC)C2)CC(=O)[C@H](C)/C=C(\C)[C@@H](O)[C@@H](OC)C(=O)[C@H](C)C[C@H](C)/C=C/C=C/C=C/1C` [ridaforolimus], the “effect on the interaction between FKBP12 and the FRB domain (mating efficiency)” value in test [1] is “agonistic effect”. Consider `O=C1CCC(N2C(=O)c3ccccc3C2=O)C(=O)N1` (stereo not drawn) [thalidomide], for which, in test [2], the “effect on the interaction of IKZF1 with wild-type CRBN” value was “agonistic effect”. Further, in test [3], the “effect on the interaction of IKZF1 with mutant CRBN” value is given as “not mutant CRBN”.
